Data on 9 compounds can be found in PMC10266688 (PLOS ONE, 2023).

One data set concerns HeLa cells. The data set is described as follows: MTT cytotoxicity assay, HeLa cells, 72 h. The note with it: Homo sapiens, 72 h treatment. Format: cell-based.
The subject of a further data set is SKOV3 cells. Nature of the data set: MTT cytotoxicity assay, SKOV3 cells, 72 h. Format: cell-based. The note with it: Homo sapiens, SK-OV-3; 72 h treatment.
Data set [1] has as its target T1, 42kDa cellular protein (RPN13) (Homo sapiens, UniProt Q16186).
T1 construct: endogenous in cells; host or cells: HeLa cell lysate
The data set is described as follows: Competition for RA190B binding in HeLa cell lysate. The note with it: HeLa lysate pre-treated with compound (5 μM) 45 min 4°C, then RA190B (20 μM). As to the method:
NEM (1 mM) used as positive control.

The subject of another data set is TC1-OVA cells. Nature of the data set: Antigen presentation (H-2Kb/[…]) by TC1-OVA cells, flow cytometry. The note with it: 0.25 μM, 12 h. Format: cell-based, mouse.
Data set [2] relates to proteasome (4UbFL reporter). Nature of the data set: 4UbFL reporter in ES2-4UbFL tumor and leg muscle of nude mice. Format: in vivo, mouse. The note with it: single IP dose Up284 20mg/kg or bortezomib 0.75 mg/kg, 4 h and 24 h. As to the method: A-C) Female nude mice were inoculated IP with ES2-luc cells, a human ovarian cancer line expressing luciferase. […] The IP tumor tissue and electroporated normal muscle tissue, being spatially distinct, were identified with separate regions of interest (ROI) after simultaneous imaging with IVIS.
Briefly mice were inoculated IP with ES2 cells stably expressing 4UbFL. After 48 h, the mice were injected with luciferin, imaged and then randomized into 3 groups (n = 5/group). Next, leg muscle of each mouse was electroporated with 4UbFL plasmid (considered as normal tissue). After 48 h (i.e. day 4) the mice were re-imaged and basal bioluminescence (0 h) was separately measured in the leg muscle and peritoneal ROIs.

Data set [3] in a line: Repeat dosing toxicity study: hematologic parameters. The note with it: female CD1 mice, Up284 20 mg/kg, Bortezomib 1 mg/kg.
Experimental: The mice were divided into three groups consisting of three female CD1 mice each. […] Terminal blood sampling for hematological and serum biochemical analysis was performed on Day 7 of the study, 24 h after the last dosing. […] Terminal bleeding and euthanasia were performed on Day 7, 24 h after the third dosing. Blood collection was carried out after 6 h fasting. Animals were injected IP with 2,2,2-tribromoethanol (200 mg/kg) and the blood was collected from orbital sinuses into dry microtainers without anticoagulant. For the serum collection, the tubes with collected blood were held at RT for 15–60 min after blood drawing to form a clot, and then were centrifuged at 9000 rpm for 20 min at 4°C. The collected serum was frozen within 60–80 min after blood drawing and was stored at -20°C for further clinical chemistry analysis. For the hematological study, 25 μL of fresh blood was quickly mixed with an equal volume of 0.36% solution of K2EDTA in saline. Assessment of the hematological parameters was performed using the BIO TE hematology analyzer MCL-3124 and consumable reagents (Cormay) within 2 h of the blood draw. For clinical chemistry analyses, ASAT, ALAT, ALP, LDH, GGT, CK, Creatinine, Urea and TP were determined in the serum using commercial kits according to the manufacturer’s instructions.
Data set [4] deals with proteasome (4UbFL reporter). Nature of the data set: 4UbFL reporter assay in ES2 cells. The note with it: 4 h. Format: cell-based, human. As to the method: Sub-confluent cultures of cells were transfected with 4UbFL plasmid using TransIT 2020 reagent (Mirus Bio). Cells were seeded at 10,000 cells/well in 96-well plates 48 h post transfection, and incubated with compounds or vehicle (DMSO) at the doses and for the times indicated. Luciferase activity in cell lysate was determined with a luciferase assay kit (Promega) according to the manufacturer’s instructions. Bioluminescence was measured using a Glomax Multidetection system (Promega).
Two days later, luciferin was injected IP and the baseline enzymic activity of luciferase in the transduced muscle tissue was visualized as bioluminescence within this region of interest (ROI) using an IVIS imager. […]. After 4h, 24h and 48h the mice were again injected with luciferin, imaged and bioluminescence was quantified (Fig 5B). […] A) ES2 cells stably transduced with the 4UbFL reporter plasmid were treated with compounds at indicated doses for 4 h. The cells were then washed, lysed and their luminescence measured by a luminometer after addition of luciferin. B) Female CD1 mice electroporated with 4UbFL plasmid in their leg muscle. After 48 h, the mice were injected with luciferin, imaged by IVIS for their basal bioluminescence and randomized into two groups of five. […]. D) Up284 tissue distribution. […].

The test system of data set [5] is HMW polyUb proteins in ES2 cells. The data set is described as follows: Western blot for polyubiquitinated proteins. The note with it: by 12 h.
A further data set concerns TOV21G and ES2 cells. Nature of the data set: Annexin V apoptosis assay. The note with it: TOV21G and ES2, 12 h.

Values joined by “and” are separate entries in the source; they are usually repeats but may differ in a detail not shown here. Identical values can stand only once.

T1 sequence (Q16186 2-407): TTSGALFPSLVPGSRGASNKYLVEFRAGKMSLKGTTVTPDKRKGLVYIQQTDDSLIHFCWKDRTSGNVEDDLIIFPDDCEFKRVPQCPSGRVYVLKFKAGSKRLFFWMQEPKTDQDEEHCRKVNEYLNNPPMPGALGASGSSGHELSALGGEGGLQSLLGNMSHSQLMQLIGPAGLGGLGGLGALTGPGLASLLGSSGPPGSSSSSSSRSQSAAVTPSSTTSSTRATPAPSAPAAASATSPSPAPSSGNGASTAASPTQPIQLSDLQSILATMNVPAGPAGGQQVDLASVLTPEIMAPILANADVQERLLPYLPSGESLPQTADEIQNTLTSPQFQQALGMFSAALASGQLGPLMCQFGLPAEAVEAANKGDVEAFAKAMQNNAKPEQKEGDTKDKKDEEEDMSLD
Experimental for TC1-OVA cells: TC1 cells stably expressing Ovalbumin (TC1-OVA) were plated (125,000 cells/well) in a 6 well plate in 2 mL RPMI complete medium.
C) TC1-OVA cells were plated (125,000 cells/well) in a 6 well plate in 2 mL/well in complete medium.

Regarding `N#Cc1ccc(/C=C2/C(=O)/C(=C/c3ccc(C#N)cc3)C23CCN(C(=O)c2ccccc2)CC3)cc1` [Up288], the results for the IC50 with HeLa cells and with SKOV3 cells were 0.28 µM and 0.39 µM, respectively.
Taken in the same sequence, the figures for `C=CC(=O)N1CCC2(C1)/C(=C\c1ccc(C#N)cc1)C(=O)/C2=C/c1ccc(C#N)cc1` (centres unmarked) [Up306] were 0.05 µM and 0.12 µM.
Taken in the same sequence, the figures for `N#Cc1ccc(/C=C2/C(=O)/C(=C/c3ccc(C#N)cc3)C23CCNC3)cc1` [Up302] were 0.08 µM and 0.17 µM.
In the case of `CC(C)C[C@H](NC(=O)[C@H](Cc1ccccc1)NC(=O)c1cnccn1)B(O)O` [bortezomib], in data set [1], the “competition for RA190B binding to the 42KDa cellular protein” value (shortened to “competition for RA190B binding”) is “did not compete”. The “MHC class I antigen presentation (SIINFEKL on H-2Kb)” value with TC1-OVA cells is reported as “did not”. Also, in data set [2], the “4UbFL bioluminescence signal in muscle tissue vs tumor” value is listed as “similarly enhanced the bioluminescence signal”. Besides, the MPV in data set [3] (group Mean) was 5.70 fL; in data set [3] (individual mice) it was 5.70 fL and 5.60 fL and 5.80 fL.
Turning to `N#Cc1ccc(/C=C2/C(=O)/C(=C/c3ccc(C#N)cc3)C23CCN(C(=O)C(F)(F)F)CC3)cc1` [Up290], the values for the IC50 in the data set on HeLa cells and in the data set on SKOV3 cells were 0.15 µM and 0.29 µM, respectively.
`Cl.N[C@@H](Cc1ccccc1)C(=O)N1C/C(=C/c2ccc(Cl)c(Cl)c2)C(=O)/C(=C\c2ccc(Cl)c(Cl)c2)C1` [RA190, reference compound]: in data set [1], the “competition for RA190B binding” value is recorded as “competed”. In addition, the “MHC class I antigen presentation (SIINFEKL on H-2Kb)” value in the data set with TC1-OVA cells is on record as “enhance MHC class I presentation”. For the same compound, in data set [4], the “stabilization of 4UbFL reporter (fold increase in luminescence)” value is given as “dose-dependent stabilization”. The “accumulation of HMW polyUb proteins” value in [5] is reported as “profound accumulation”.
Take `N.N.[Cl][Pt][Cl]` [cisplatin, reference compound]: the “Annexin-V positive cells, single agent” value in the data set with TOV21G and ES2 cells is given as “minimal impact”.
As for `CCCC(CCC)C(=O)N1CCC2(CC1)/C(=C\c1ccc(C#N)cc1)C(=O)/C2=C/c1ccc(C#N)cc1` [Up291], the IC50 with HeLa cells is 0.25 µM; in the data set with SKOV3 cells, 0.42 µM.
In the case of `C=CC(=O)N1CCC2(CC1)/C(=C\c1ccc(C#N)cc1)C(=O)/C2=C/c1ccc(C#N)cc1` [Up285], the IC50 is 0.025 µM with HeLa cells and 0.06 µM in the data set on SKOV3 cells. Also, the “competition for RA190B binding” value in [1] is listed as “competed”.
